In patent US7494976B2, “Caveolin peptides and their use as therapeutics” (Yale University, priority 2000, dated 2009):
“Also recorded” adds a separate entry of the source.

Tests used:
isolated mouse aorta [1] = test: Ach-induced relaxation of isolated mouse aortic rings (organ bath); details: 10 μM peptide, twenty hours incubation, PE precontracted rings
Experimental: (§1) For isolated mouse aortic rings preparations, male C57 black mice (5-7 weeks of age) were anesthetized with methoxyflurane and sacrificed by exsanguination. The thoracic aorta was dissected and cut into cylindrical segments of three millimeters in length. Using a sterile 48-well tissue culture plate, each ring was incubated in a total volume of one ml with either peptides or vehicle (DMSO) diluted in DMEM supplemented with penicillin (100 units/ml), streptomycin (100 μg/ml) and L-glutamine (1 mM). The plate was incubated with 5% CO2. Following incubation with the peptides (one, six, twelve or twenty hours), rings were washed in oxygenated (95% O2-5% CO2) Krebs-Henseleit bicarbonate buffer solution (KHS) of the following composition (NaCl—118.3 mmol/L, KCl—4.7 mmol/L, CaCl2—2.5 mmol/L, MgSO4—1.2 mmol/L, KH2PO4—1.2 mmol/L, NaHCO3—25 mmol/L, glucose—5.6 mmol/L at 37° C. with ibuprofen (10 μM). The rings were suspended by two tungsten wires ([…] thickness) inserted into the lumen and mounted in a vessel myograph system (five ml chamber, Kent Scientific). The mouse aortas were submitted to a resting tension of 1.5 grams and isometric tension was recorded using a force transducer coupled to a MacLab data acquisition system. […] In some experiments concentration-response curves to the contractile effects of PE were monitored.

isolated mouse aorta [2] = test: Phenylephrine-induced contraction of isolated mouse aorta; details: 10 μM peptide preincubation
Experimental: as §1

mouse aortic rings = test: L-NAME induced contraction of peptide-pretreated mouse aortic rings; details: vessels pretreated with 10 μM peptide; L-NAME 100 μM
Experimental: as §1, with “monitored. […]” for “monitored.”

isolated mouse aortas = test: Sodium nitroprusside induced (endothelium independent) relaxation of mouse aorta; details: 10 μM peptide, twenty hours; SNP 10 μM
prostacyclin production = test: Prostacyclin release from mouse aortic rings (6-keto-PGF1α by EIA); details: peptide twenty hours; Ach 1 μM thirty minutes
Experimental: To further test the specificity of AP-Cav, Ach-induced prostacyclin production was measured. For measurement of prostacyclin release, after twenty hour incubation period, aortic segments (4-5 mm) were placed in sterile 48-well tissue culture plates with 300 μl of KHS at 37° C. for thirty minutes in an incubator. Then aliquots of […] were taken in order to measure the basal release of prostacyclin. Ach (1 μM) was added and the plate was kept in the incubator for an additional thirty minutes. Aliquots were then taken in order to measure the Ach-stimulated release of prostacyclin. This protocol was performed in absence or in presence of ibuprofen (10 μM). The aliquots were frozen and prostacyclin release was measured as the stable breakdown product, 6-keto-PGF1α, by EIA (Amersham).

[3] = system: bovine aortic endothelial cells (BAEC); test: Ionomycin stimulated NO release from cultured endothelial cells (chemiluminescence); format: cell-based; details: 1 μM peptide six hours; ionomycin 1 μM thirty minutes
Experimental: For measurement of nitric oxide release from cultured endothelial cells, bovine aortic endothelial cells (BAEC) were cultured in high glucose Dulbecco's modified Eagle's medium (DMEM) containing 10% (v/v) fetal bovine serum, penicillin, streptomycin and L-glutamine. For measurement of ionomycin stimulated NO release, confluent BAEC were cultured in […]. Cells were washed and media was changed to serum free DMEM containing peptides or vehicle (0.01% DMSO). Following a six hour incubation, peptides were washed out and cells were stimulated with ionomycin (1 μM) for thirty minutes. Media was collected and processed for the measurement of nitrite (NO2—), the stable breakdown product of NO in aqueous solution, by NO-specific chemiluminescence. Samples containing NO2— were refluxed in glacial acetic acid containing sodium iodide. […] In all experiments, NO2— release was inhibitable by a NOS inhibitor.

[4] = system: carrageenan induced paw edema; test: Murine carrageenan induced paw edema model; format: in vivo, mouse; details: 1 mg/kg, paws 48 hours post-injection, H&E
Experimental: For in vivo inflammation studies the murine carrageenan induced paw edema model was used. Briefly, male, Swiss mice (25-30 grams) were divided in groups (n=6-7) and lightly anaesthetised with methoxyflurane. Each group of animals received a subplantar administration of 50 μl of 1% (w/v) λ carrageenan. Paw volume was measured using a hydroplethismometer modified for measuring small volumes (Ugo Basile) immediately before the carrageenan injection and twenty-four and forty-eight hours thereafter. The increase in paw volume is evaluated as the difference between paw volume at each time point and the basal volume. AP-Cav (0.3, 1 mg/kg i.p.) AP-Cav-X (1 mg/kg i.p.) and dexamethasone (0.1 mg/kg s.c.) were administered at the time of carrageenin administration (time zero) and at twenty-four and forty-eight hours. In a separate series of experiments, forty-eight hours post carrageenan injections, animals were sacrificed by cervical dislocation and both paws were cut. The right paws were embedded in OCT medium and cross sections ([…] of thickness) were obtained for staining with hematoxylin and eosin.

HepG-2 tumors = test: HepG-2 tumor growth in nude mice; format: in vivo, mouse; details: 2.5 mg/kg, day fourteen
Experimental: The ability of the AP-Cav peptide to influence tumor growth in vivo was also examined. Nude mice were injected with the HepG-2 cells, a human hepatocarcinoma line, and the effects of AP-Cav and AP-Cav-X examined after daily administration of the peptides intraperitoneal. For HepG-2 cells implants in nude mice, the human hepatocarcinoma cell line, HepG-2, was cultured in minimal essential media with 10% fetal bovine serum, 2 mM L-glutamine, penicillin and streptomycin. Cells were grown on 150 mm dishes up to 80% confluence, trypsinized and ressuspended in serum free media. Viable cells were counted using the trypan blue exclusion method. A cell suspension was prepared at a density of 5×10^7 cells/ml. Nude mice were then injected in the flank with 100 μl of the HepG-2 cell suspension.
When the tumors reached a solid palpable mass (7-10 days), treatment with the different drugs began. Peptides were dissolved in 0.01% (v/v) DMSO and administered daily by i.p. injection (100 μl/20 gram mouse) for fourteen days. Tumor volume was determined every day using the formula width^2×length×0.52. For histochemistry tumors were excised from the animal at day fourteen, washed in phosphate buffered saline and fixed in 70% ethanol. […] Images were captured using a Zeiss microscope coupled to a CCD camera and were recorded with the NIH Image program.

vascular leakage = test: Mustard oil induced Evans blue extravasation in the mouse ear (vascular permeability); format: in vivo; details: 2 mg/kg i.p., forty-five minute pretreatment; read after thirty minutes
Experimental: FIG. 10—AP-caveolin peptide reduces vascular leakage. Mice were pretreated with AP-Cav, AP-Cav-X (2 mg/kg of each, i.p.) or L-NAME (30 mg/kg, i.p.) for forty-five minutes followed by Evans blue administration (30 mg/kg, i.v.). Mustard oil was applied to the ventral and dorsal side of the right ear one minute after Evans blue injection. The extent of Evans blue extravasation was assessed after thirty minutes (n=4 mice per group for vehicle and L-NAME treated mice and n=5 for AP-Cav and AP-Cav-X treated mice; *p<0.05). (D) Representative pictures of mice subjected to mustard oil induced inflammation.
To directly assess if the AP-peptide can influence vascular leakage in an additional model, we treated mice with vehicle, AP-Cav, AP-Cav-X (2 mg/kg, i.p. for each; forty-five minute pretreatment) or L-NAME (30 mg/kg, i.p., […] pretreatment) and examined the ability of mustard oil to induce the extravasation of Evans blue, as an index of vascular permeability. […] Thus, in two distinct models, AP-Cav reduces inflammation likely through attenuating eNOS-dependent blood flow and/or permeability changes evoke by inflammatory stimuli.

## AP-Cav-X: Scrambled control peptide Cav-X (WGIDKAFFTTSTVTYKWFRY, SEQ ID NO: 9) fused to the antennapedia internalization sequence; SEQ ID NO: 12 (RQIKIWFQNRRMKWKKWGIDKAFFTTSTVTYKWFRY)
Isolated mouse aorta [1]
  effect on Ach-induced relaxation: did not influence Ach-induced relaxation
Isolated mouse aorta [2]
  potentiation of the vasoconstrictor actions of phenylephrine: but not AP-Cav-X resulted in potentiation
Mouse aortic rings
  further increase in isometric tension by L-NAME: further increased isometric tension
Isolated mouse aortas
  effect on vasorelaxant properties of sodium nitroprusside: had no effect
Prostacyclin production
  basal or Ach stimulated prostacyclin production (6-keto-PGF1α): Neither AP-Cav-X nor AP-Cav influenced; also recorded: do not affect Ach-induced prostacyclin release
[3]
  calcium ionophore stimulated NOx release: but not AP-Cav-X blocked
[4]
  cellular infiltration into the sites of inflammation (histology): did not show marked differences
HepG-2 tumors
  tumor morphology (hematoxylin and eosin): classical epitheliod appearance and were highly vascularized
Vascular leakage
  vascular leak (Evans blue extravasation): dilated vessels and diffuse blue dye in the periphery of the right ear
